Assay results: article PMC5903342 (Oxidative Medicine and Cellular Longevity, 2018)

Columns and labels:
HepG2 cells = assay: Flow cytometry cell cycle analysis; type: cell-based, Human; settings: 24 h
Experimental: The cells (1 × 10^5) were washed in PBS solution and centrifuged at 400 ×g for 5 min, and after, the cells were suspended in DNA staining solution (0.3% Triton X-100 and 50 μg/mL propidium iodide (PI) in a 43 mM citrate buffer), as previously described. After 45 minutes of treatment with 50 μg/mL ribonuclease A (Sigma, EUA), the PI fluorescence was determined (10,000 events per sample) in a Gallios flow cytometer (Beckman Coulter, USA). Data were analyzed by the Summit v4.3 software. The experiments were done at least three times, and statistical analysis was performed by one-way ANOVA followed by a Tukey's post hoc test.

[1] = system: S. enterica serovar typhimurium-tested strains; assay: Cytotoxic effect in bacterial strains (CFU survival); type: cell-based, Salmonella enterica serovar typhimurium; settings: presence and absence of exogenous metabolic activation (data not shown)
Experimental: To determine the cytotoxic effect, after 60 min incubation, the assay mixtures were diluted in 0.9% NaCl (w/v) to obtain a suspension containing 2 × 10^2 cells/mL. A suitable aliquot (100 μL) of this suspension was plated on nutrient agar (0.8% bacto nutrient broth (Difco), 0.5% NaCl, and 1.5% agar). The plates were then incubated at 37°C for 24 h, and the colony-forming units (CFU) were counted to obtain the percentage of survival. All the experiments were done in triplicate and were repeated at least twice.

[2] = system: Salmonella enterica serovar typhimurium TA102; assay: Antimutagenicity assay (Salmonella/microsome), strain TA102; type: cell-based; settings: TA102, cotreatment
Description: Salmonella enterica serovar typhimurium (S. typhimurium) strains TA100, TA1535, TA104, and TA102 from the authors' laboratory stock were used as described by Maron and Ames in the antimutagenicity assay.
We carried out the coexposure protocol of the antimutagenicity assay to investigate the potential of the compound to protect against alkylation-mediated genetic mutation in S. typhimurium TA100, TA102, TA104, and TA1535 strains according to Ajith and Soja. The test proceeded both in the absence and presence of a metabolic activation system (4% S9 mix, Aroclor preinduced, from MOLTOX Inc., USA). DMSO 1% served as the negative control. […] The mixtures were incubated in a shaker at 37°C (preincubation) under light protection. After a total of 60 min of cotreatment, the mixtures were added to and mixed with 2 mL top agar containing 0.05 mmol/L L-histidine and D-biotin for the S. typhimurium strains. Each of these was then spread on a minimal glucose agar (1.5% agar, Vogel-Bonner medium E, containing 2% glucose) plate. After the top agar solidified, the plates were incubated at 37°C for 60–72 h. Each tester strain was assayed in triplicate and repeated at least twice, and the number of revertant colonies was counted for each tester strain and treatment group. The counts of revertant colonies were obtained to build a dose-response curve and calculate the percentage of reduction.

[3] = +S9, CPA (150 μM), atorvastatin 20 μM
[4] = +S9, CPA (150 μM), atorvastatin 100 μM
[5] = +S9, CPA (150 μM), atorvastatin 200 μM
[6] = +S9, CPA (150 μM), atorvastatin 1000 μM
[7] = −S9, MMS (100 μM), atorvastatin 20 μM
[8] = −S9, MMS (100 μM), atorvastatin 100 μM
[9] = −S9, MMS (100 μM), atorvastatin 200 μM
[10] = −S9, MMS (100 μM), atorvastatin 1000 μM

SMILES: CC(C)c1c(C(=O)Nc2ccccc2)c(-c2ccccc2)c(-c2ccc(F)cc2)n1CC[C@@H](O)C[C@@H](O)CC(=O)O [AVA, atorvastatin]
- Cell cycle pattern (HepG2 cells; 25 μM AVA alone, in comparison to the control): did not induce alterations
- Effect on G1, S and G2 phases (HepG2 cells; AVA and CPA cotreatment): did not affect
- Effect on G1 and S phases (HepG2 cells; AVA and MMS cotreatment): did not affect
- Number of cells in the G2 phase (HepG2 cells; AVA and MMS cotreatment): restored
- sub-G1 percentage of cells (HepG2 cells; cotreatment 20 μM MMS + AVA 1 μM): 12%
- sub-G1 percentage of cells (HepG2 cells; cotreatment 20 μM MMS + AVA 10 μM): 4%
- sub-G1 percentage of cells (HepG2 cells; cotreatment 20 μM MMS + AVA 25 μM): 2%
- polyploid subpopulation (HepG2 cells; cotreatment AVA + 20 μM MMS): 3-4%
- sub-G1 percentage of cells (HepG2 cells; cotreatment AVA + CPA, no dose dependence): 3-4%
- Cell cycle pattern (HepG2 cells; cotreatment with 25 μM AVA in MMS-exposed (20 μM) cells): restored the cell cycle pattern
- Cytotoxic effect to bacterial strains [1]: no cytotoxic effect
- % reduction [2, 3]: 7.27%
- His+ (revertant colonies) [2, 3]: 566 ± 54
- % reduction [2, 4]: 9.09%
- His+ (revertant colonies) [2, 4]: 560 ± 38
- % reduction [2, 5]: 14.55%
- His+ (revertant colonies) [2, 5]: 543 ± 42
- % reduction [2, 6]: 30%
- His+ (revertant colonies) [2, 6]: 496 ± 11
- % reduction ([2]; +S9, CPA (150 μM), atorvastatin 1000 μM, listed as Atorvastatin): 30.00^∗ %
- % reduction [2, 7]: 16.03%
- His+ (revertant colonies) [2, 7]: 525 ± 32
- % reduction [2, 8]: 19.08%
- His+ (revertant colonies) [2, 8]: 515 ± 64
- % reduction [2, 9]: 29%
- His+ (revertant colonies) [2, 9]: 483 ± 91
- % reduction ([2]; −S9, MMS (100 μM), atorvastatin 200 μM, listed as Atorvastatin): 29.01^∗ %
- % reduction [2, 10]: 41.2%
- His+ (revertant colonies) [2, 10]: 443 ± 28
- % reduction ([2]; −S9, MMS (100 μM), atorvastatin 1000 μM, listed as Atorvastatin): 41.22^∗ %
